Measurements taken from ChEMBL document CHEMBL1128617, “4-Deoxy-4-aminoavermectins with potent broad spectrum antiparasitic activities” (1995).

What was measured:
Format in all cases: functional
Cooperia oncophora [1] = assay: Antiparasitic activity against Cooperia oncophora at dose of 0.10 mg/kg in sheep anthelmintic test
Haemonchus contortus [2] = assay: Antiparasitic activity against Haemonchus contortus at dose of 0.10 mg/kg in sheep anthelmintic test
Trichostrongylus axei [3] = assay: Antiparasitic activity against Trichostrongylus axei at dose of 0.10 mg/kg in sheep anthelmintic test
[4] = tested on: Teladorsagia circumcincta; assay: Antiparasitic activity against Ostertagia circumcincta at dose of 0.10 mg/kg in sheep anthelmintic test
Cooperia [5] = assay: Antiparasitic activity against Cooperia […] at dose of 0.10 mg/kg in sheep anthelmintic test; conditions: dose 0.1 mg/kg
Artemia = assay: In vitro antiparasitic activity in brine shrimp assay
[6] = tested on: Trichostrongylus colubriformis; assay: Antiparasitic activity against Trichostrongylus colubriformis at dose of 0.10 mg/kg in sheep anthelmintic test
[7] = tested on: Oesophagostomum columbianum; assay: Antiparasitic activity against Oesophagostomum columbianum at dose of 0.10 mg/kg in sheep anthelmintic test
Cooperia oncophora [8] = assay: Antiparasitic activity against Cooperia oncophora at dose of 0.05 mg/kg in sheep anthelmintic test
Trichostrongylus axei [9] = assay: Antiparasitic activity against Trichostrongylus axei at dose of 0.05 mg/kg in sheep anthelmintic test
[10] = tested on: Teladorsagia circumcincta; assay: Antiparasitic activity against Ostertagia circumcincta at dose of 0.05 mg/kg in sheep anthelmintic test
Cooperia [11] = assay: Antiparasitic activity against Cooperia […] at dose of 0.05 mg/kg in sheep anthelmintic test
[12] = tested on: Trichostrongylus colubriformis; assay: Antiparasitic activity against Trichostrongylus colubriformis at dose of 0.05 mg/kg in sheep anthelmintic test
[13] = tested on: Oesophagostomum columbianum; assay: Antiparasitic activity against Oesophagostomum columbianum at dose of 0.05 mg/kg in sheep anthelmintic test
Haemonchus contortus [14] = assay: Antiparasitic activity against Haemonchus contortus at dose of 0.05 mg/kg in sheep anthelmintic test
Ovis aries [15] = assay: Antiparasitic activity against Cooperia […] at dose of 0.20 mg/kg in sheep anthelmintic test; conditions: dose 0.2 mg/kg
Ovis aries [16] = assay: Antiparasitic activity against Ostertagia circumcincta at dose of 0.20 mg/kg in sheep anthelmintic test; conditions: dose 0.2 mg/kg
Ovis aries [17] = assay: Antiparasitic activity against Trichostrongylus axei at dose of 0.20 mg/kg in sheep anthelmintic test; conditions: dose 0.2 mg/kg
Ovis aries [18] = assay: Antiparasitic activity against Trichostrongylus colubriformis at dose of 0.20 mg/kg in sheep anthelmintic test; conditions: dose 0.2 mg/kg
Ovis aries [19] = assay: Antiparasitic activity against Cooperia oncophora at dose of 0.20 mg/kg in sheep anthelmintic test; conditions: dose 0.2 mg/kg
Ovis aries [20] = assay: Antiparasitic activity against Haemonchus contortus at dose of 0.20 mg/kg in sheep anthelmintic test; conditions: dose 0.2 mg/kg
Ovis aries [21] = assay: Antiparasitic activity against Oesophagostomum columbianum at dose of 0.20 mg/kg in sheep anthelmintic test; conditions: dose 0.2 mg/kg

Compound	Reduction (Cooperia oncophora [1]; dose 0.1 mg/kg)	Reduction (Haemonchus contortus [2]; dose 0.1 mg/kg)	Reduction (Trichostrongylus axei [3]; dose 0.1 mg/kg)	Reduction ([4]; dose 0.1 mg/kg)	Reduction (Cooperia [5])	IC100 (Artemia)	Reduction ([6]; dose 0.1 mg/kg)	Reduction ([7]; dose 0.1 mg/kg)	Reduction (Cooperia oncophora [8])	Reduction (Trichostrongylus axei [9])	Reduction [10]	Reduction (Cooperia [11])	Reduction [12]	Reduction [13]	Reduction (Haemonchus contortus [14])	other results
CCC(C)[C@H]1O[C@]2(C=C[C@@H]1C)C[C@@H]1C[C@@H](C/C=C(\C)[C@@H](O[C@H]3C[C@H](OC)[C@@H](O[C@H]4C[C@H](OC)[C@H](/N=C/N(C)C)[C@H](C)O4)[C@H](C)O3)[C@@H](C)/C=C/C=C3\CO[C@@H]4[C@H](O)C(C)=C[C@@H](C(=O)O1)[C@]34O)O2 (stereo partly drawn)	<50%	>95%	51%	>95%	76%	870 ng/mL	<50%	>95%	–	–	–	–	–	–	–	–
CCC(C)[C@H]1O[C@]2(C=C[C@@H]1C)C[C@@H]1C[C@@H](C/C=C(\C)[C@@H](O[C@H]3C[C@H](OC)[C@@H](O[C@H]4C[C@H](OC)[C@@H](NC(C)=O)[C@H](C)O4)[C@H](C)O3)[C@@H](C)/C=C/C=C3\CO[C@@H]4[C@H](O)C(C)=C[C@@H](C(=O)O1)[C@]34O)O2 (stereo partly drawn)	–	–	–	–	–	325 ng/mL	–	–	>95%	>95%	<50%	76%	<50%	>95%	>95%	–
CCC(C)[C@H]1O[C@]2(C=C[C@@H]1C)C[C@@H]1C[C@@H](C/C=C(\C)[C@@H](O[C@H]3C[C@H](OC)[C@@H](O[C@H]4C[C@H](OC)[C@H](NC(=O)c5ccccc5)[C@H](C)O4)[C@H](C)O3)[C@@H](C)/C=C/C=C3\CO[C@@H]4[C@H](O)C(C)=C[C@@H](C(=O)O1)[C@]34O)O2 (stereo partly drawn)	–	–	–	–	–	28000 ng/mL	–	–	>95%	<50%	76%	>95%	<50%	>95%	76%	–
CCC(C)[C@H]1O[C@]2(C=C[C@@H]1C)C[C@@H]1C[C@@H](C/C=C(\C)[C@@H](O[C@H]3C[C@H](OC)[C@@H](O[C@H]4C[C@H](OC)[C@H](NC(C)=O)[C@H](C)O4)[C@H](C)O3)[C@@H](C)/C=C/C=C3\CO[C@@H]4[C@H](O)C(C)=C[C@@H](C(=O)O1)[C@]34O)O2 (stereo partly drawn)	–	–	–	–	–	540 ng/mL	–	–	–	>95%	>95%	>95%	>95%	>95%	>95%	–
CCC(C)[C@H]1O[C@]2(C=C[C@@H]1C)C[C@@H]1C[C@@H](C/C=C(\C)[C@@H](O[C@H]3C[C@H](OC)[C@@H](O[C@H]4C[C@H](OC)[C@H](NS(C)(=O)=O)[C@H](C)O4)[C@H](C)O3)[C@@H](C)/C=C/C=C3\CO[C@@H]4[C@H](O)C(C)=C[C@@H](C(=O)O1)[C@]34O)O2 (stereo partly drawn)	–	–	–	–	–	430 ng/mL	–	–	>95%	>95%	>95%	>95%	>95%	>95%	>95%	–
CCC(C)[C@H]1O[C@]2(C=C[C@@H]1C)C[C@@H]1C[C@@H](C/C=C(\C)[C@@H](O[C@H]3C[C@H](OC)[C@@H](O[C@H]4C[C@H](OC)[C@H](NC=O)[C@H](C)O4)[C@H](C)O3)[C@@H](C)/C=C/C=C3\CO[C@@H]4[C@H](O)C(C)=C[C@@H](C(=O)O1)[C@]34O)O2 (stereo partly drawn)	–	–	–	–	–	380 ng/mL	–	–	>95%	>95%	>95%	>95%	>95%	>95%	>95%	–
CCC(C)[C@H]1O[C@]2(CC[C@@H]1C)C[C@@H]1C[C@@H](C/C=C(\C)[C@@H](O[C@H]3C[C@H](OC)[C@@H](O[C@H]4C[C@H](OC)[C@H](NC(C)=O)[C@H](C)O4)[C@H](C)O3)[C@@H](C)/C=C/C=C3\CO[C@@H]4[C@H](O)C(C)=C[C@@H](C(=O)O1)[C@]34O)O2 (stereo partly drawn)	>95%	>95%	>95%	>95%	>95%	650 ng/mL	>95%	>95%	–	–	–	–	–	–	–	–
IVERMECTIN	–	–	–	–	–	430 ng/mL	–	–	–	–	–	–	–	–	–	Reduction (Cooperia oncophora [1]): > 95%; Reduction (Haemonchus contortus [2]): > 95%; Reduction (Trichostrongylus axei [3]): > 95%; Reduction [4]: > 95%; Reduction [6]: > 95%; Reduction [7]: > 95%
CCC(C)[C@H]1O[C@]2(C=C[C@@H]1C)C[C@@H]1C[C@@H](C/C=C(\C)[C@@H](O[C@H]3C[C@H](OC)[C@@H](O[C@H]4C[C@@H](OC)[C@@H](NC(C)=O)[C@H](C)O4)[C@H](C)O3)[C@@H](C)/C=C/C=C3\CO[C@@H]4[C@H](O)C(C)=C[C@@H](C(=O)O1)[C@]34O)O2 (stereo partly drawn)	–	–	–	–	–	430 ng/mL	–	–	76%	>95%	>95%	<50%	>95%	>95%	>95%	–
CCC(C)[C@H]1O[C@]2(CC(O)[C@@H]1C)C[C@@H]1C[C@@H](C/C=C(\C)[C@@H](O[C@H]3C[C@H](OC)[C@@H](O[C@H]4C[C@H](OC)[C@H](NC(C)=O)[C@H](C)O4)[C@H](C)O3)[C@@H](C)/C=C/C=C3\CO[C@@H]4[C@H](O)C(C)=C[C@@H](C(=O)O1)[C@]34O)O2 (stereo partly drawn)	>95%	<50%	>95%	>95%	76%	870 ng/mL	>95%	>95%	–	–	–	–	–	–	–	–
CCC(C)[C@H]1O[C@]2(C=C[C@@H]1C)C[C@@H]1C[C@@H](C/C=C(\C)[C@@H](O[C@H]3C[C@H](OC)[C@@H](O[C@H]4C[C@H](OC)[C@H](NN(C)C)[C@H](C)O4)[C@H](C)O3)[C@@H](C)/C=C/C=C3\CO[C@@H]4[C@H](O)C(C)=C[C@@H](C(=O)O1)[C@]34O)O2 (stereo partly drawn)	>95%	>95%	>95%	>95%	>95%	430 ng/mL	>95%	>95%	–	–	–	–	–	–	–	–
CCC(C)[C@H]1O[C@]2(C=C[C@@H]1C)C[C@@H]1C[C@@H](C/C=C(\C)[C@@H](O[C@H]3C[C@H](OC)[C@@H](O[C@H]4C[C@H](OC)[C@H](NC(=O)OC)[C@H](C)O4)[C@H](C)O3)[C@@H](C)/C=C/C=C3\CO[C@@H]4[C@H](O)C(C)=C[C@@H](C(=O)O1)[C@]34O)O2 (stereo partly drawn)	>95%	>95%	>95%	>95%	>95%	430 ng/mL	>95%	>95%	–	–	–	–	–	–	–	–
CCC(C)[C@H]1O[C@]2(C=C[C@@H]1C)C[C@@H]1C[C@@H](C/C=C(\C)[C@@H](O[C@H]3C[C@H](OC)[C@@H](O[C@H]4C[C@H](OC)[C@H](N(C)C(C)=O)[C@H](C)O4)[C@H](C)O3)[C@@H](C)/C=C/C=C3\CO[C@@H]4[C@H](O)C(C)=C[C@@H](C(=O)O1)[C@]34O)O2 (stereo partly drawn)	–	–	–	–	–	650 ng/mL	–	–	>95%	>95%	>95%	>95%	>95%	>95%	>95%	–
CCC(=O)N[C@@H]1[C@H](C)O[C@@H](O[C@H]2[C@H](C)O[C@@H](O[C@@H]3/C(C)=C/C[C@@H]4C[C@@H](C[C@]5(C=C[C@H](C)[C@@H](C(C)CC)O5)O4)OC(=O)[C@@H]4C=C(C)[C@@H](O)[C@H]5OC/C(=C\C=C\[C@@H]3C)[C@]54O)C[C@@H]2OC)C[C@@H]1OC (stereo partly drawn)	–	–	–	–	–	430 ng/mL	–	–	>95%	>95%	>95%	>95%	>95%	>95%	>95%	–
CCC(C)[C@H]1O[C@]2(C=C[C@@H]1C)C[C@@H]1C[C@@H](C/C=C(\C)[C@@H](O[C@H]3C[C@H](OC)[C@@H](O[C@H]4C[C@H](OC)[C@H](NCc5ccccc5)[C@H](C)O4)[C@H](C)O3)[C@@H](C)/C=C/C=C3\CO[C@@H]4[C@H](O)C(C)=C[C@@H](C(=O)O1)[C@]34O)O2 (stereo partly drawn)	–	–	–	–	–	>55500 ng/mL	–	–	–	–	–	–	–	–	–	Reduction (Ovis aries [15]): >95%; Reduction (Ovis aries [16]): >95%; Reduction (Ovis aries [17]): <50%; Reduction (Ovis aries [18]): >95%; Reduction (Ovis aries [19]): >95%; Reduction (Ovis aries [20]): >95%; Reduction (Ovis aries [21]): >95%
